Test: gradient 5% acetonitrile 3 min, to 50% in 2 min, to 85% in 15 min, held 3 min, 100 µL/min
Details: column: Zorbax Extend-C18 2.1 x 50 mm; eluents: water / acetonitrile, 0.1% formic acid
How it was run: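 Pure standards were analyzed in mixtures of ~100 molecules using HPLC coupled to a quadrupole time-of-flight mass spectrometer, in both positive and negative ionization mode. Separation used a Zorbax Extend-C18 column (2.1 × 50 mm, 1.8 μm) at 100 μL/min, with water and acetonitrile each containing 0.1% formic acid. Dead and dwell volumes were 40 μL and 900 μL, and data were collected over 3 months. Retention time was read from computationally picked adduct peaks, each inspected manually.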

Compound | RP-LC retention time [s]
CC(NC(=O)Cc1cccn1-c1ccc(Cl)cc1)c1cccnc1 (stereo unspecified) | 649
Cc1cc(N2CCC(C)CC2)n2ncnc2n1 | 790
O=C(Nc1cccc(C(=O)N2CCN(c3ccc(Cl)cc3)CC2)c1)C1=CSCCO1 | 955
COC1CCC12CCN(C(=O)c1sc(C)nc1C)CC2 (stereo unspecified) | 728
COc1ccc(-c2cc(C(=O)N3CCCC3c3cc(C)on3)no2)cc1 (stereo unspecified) | 964
CCn1cc(-c2nc(C(=O)NCc3ccccc3Cl)cs2)c2cccnc21 | 1070
O=C(NC1CCCCC1)c1nnc(-c2ccc(S(=O)(=O)N3CCCCC3)cc2)o1 | 1040
CN1CCc2[nH]cnc2C12CCN(C(=O)Nc1ccccc1C(F)(F)F)C2 (stereo unspecified) | 569
CCn1cc(-c2nc(CC(=O)Nc3ccc(F)cc3F)cs2)c2cccnc21 | 992
CCc1ccccc1S(=O)(=O)N1CCC(N2CCN(Cc3ccccc3)C(=O)C2=O)CC1 | 864
Cc1cc(C)cc(NS(=O)(=O)c2cc(-c3[nH]ncc3C(=O)N3CCCC3)oc2C)c1 | 746
CC(CCc1ccccc1)NC(=O)Cn1c(=O)n(C(C)C)c2ccc(S(=O)(=O)N3CCCC3)cc21 (stereo unspecified) | 932
Cc1cc(NC(=O)C(=O)NCC(O)c2cccc3ccccc23)no1 (stereo unspecified) | 734
Nc1cc(C2CCN(S(=O)(=O)c3cccc(Cl)c3)CC2)no1 | 792
Cc1ccn2c(NC(=O)c3cccc(C(F)(F)F)c3)c(-c3ccccc3)nc2c1 | 736
CCCN1C(=O)CN(S(C)(=O)=O)CC1(C)C(=O)NCc1ccc(C)cc1 (stereo unspecified) | 758
CCCS(=O)(=O)N1CC(n2cc(C(=O)N(C)C)nn2)C1 | 626
CCOc1ccc(-n2c(=O)c3sccc3n(Cc3nc(-c4ccc(C)cc4)no3)c2=O)cc1 | 1090
c1cn(-c2cc(NC3CCCCC3)ncn2)cn1 | 617
O=C(C1=CN(c2ccc(Br)cc2)c2ccccc2S1(=O)=O)N1CCCC1 | 838
Cc1nnc2n1CCC(NS(=O)(=O)c1ccccc1F)CC2 (stereo unspecified) | 590
Cc1ccc(-c2cn(CC(=O)Nc3cc(C)ccc3C)c(=O)o2)cc1 | 954

Compound | RP-LC retention time [s]
COC(=O)N1CCC(c2ccc(OC)cc2)C1 (stereo unspecified) | 758
CCCNC(=O)N1CCCCCC1CN1CCOCC1 (stereo unspecified) | 580
Cc1cccc(C)c1NC(=O)Cn1cnc2c(sc3nc(-c4ccccc4)ccc32)c1=O | 972
Cc1ccc(CNc2c(-c3ccc(Cl)cc3)nc3ncccn23)cc1 | 867
CC(C)(C)c1csc(-c2csc(S(=O)(=O)NCc3ccc(Cl)cc3)c2)n1 | 1340
Cc1ccc(C)c(NC(=O)C2CC(=O)N(c3ccc4c(c3)CCN4C(=O)C3CC3)C2)c1 (stereo unspecified) | 768
CCn1nnc2cc(-c3noc(-c4cc(OC)c(OC)c(OC)c4)n3)ccc21 | 993
Cc1nc2cccnc2n1CC1CCCN(S(=O)(=O)c2ccc3c(c2)OCCO3)C1 (stereo unspecified) | 672
COc1cccc(C(=O)N2CCC(C(=O)NCc3csc(-c4cccs4)n3)CC2)c1 | 769
Cc1cc(OCC(=O)NCc2ccc3c(c2)OCO3)nc(N2CCCCC2)n1 | 592
O=C(Cc1ccsc1)Nc1ccc(N2CCN(Cc3ccccc3)C2=O)nc1 | 643
CCN1CCCn2cc(S(=O)(=O)Nc3cccc(OC)c3)cc2C1=O | 698
Cc1cc(NC(=O)N2CCC(n3c(C)nc4cccnc43)CC2)ccc1Br | 706
CCOc1ccc(-c2c(C)nn3c(C)c(C(=O)NCC4CCCN4CC)cnc23)cc1OCC (stereo unspecified) | 667
CCOc1ccccc1C(=O)NC1CCN(C(=O)c2cn(-c3ccc(C)c(C)c3)nn2)CC1 | 873
COc1ccc(C(C)NC(=O)C2=C3CCCN3c3ccc(F)cc3S2(=O)=O)cc1OC (stereo unspecified) | 821
Cc1ccc(NC(=O)C(=O)c2ccc[nH]2)cc1 | 894
COc1ccc(CNC(=O)c2c(C)sc3ccn(C)c(=O)c23)cc1OC | 674
CCOc1ccccc1NC(=O)CSc1nnc(Cc2ccccc2)n1-n1cccc1 | 948
COc1nccnc1N1CCC(NC(=O)Cc2ccsc2)C1 (stereo unspecified) | 611
Cc1ccc(-n2nc(C)c(S(=O)(=O)Nc3ccc(S(N)(=O)=O)cc3)c2C)cc1 | 765
CCn1cc(CN2CCC(C(=O)NC3CCCCCC3)CC2)c2cc(OC)ccc21 | 741

Compound | RP-LC retention time [s]
Cc1nc(C)c(C(=O)NCC23CCC=C2N(CC2CC2)C(=O)CC3)s1 (stereo unspecified) | 757
Cc1ccc(CNC(=O)c2ccc3c(c2)N(C(=O)c2ccc(F)cc2)CC3)o1 | 883
Cc1ccc(Cl)cc1NC(=O)N1CCC(N2CCN(Cc3ccccn3)C(=O)C2=O)CC1 | 647
CN1C(=O)c2cc(C(=O)NCc3ccccc3)nn2CC1(C)C(=O)NC1CCCCC1 (stereo unspecified) | 761
CC1=NS(=O)(=O)N(Cc2ccccc2)C=C1C(=O)OCc1noc(-c2cccc(C)c2)n1 | 1180
O=C(c1ccc(F)c(F)c1)N1CCN(c2cc(-c3ccc(F)cc3)[nH]n2)CC1 | 837
CCc1cccc(NC(=O)Cn2c(=O)n(-c3ccc(C)cc3)c(=O)c3c2cc(C)n3C)c1 | 975
COc1ccc(OC)c(NS(=O)(=O)c2cc3c4c(c2)CCC(=O)N4CCC3)c1 | 804
CCc1ccc(NC(=O)C2Cc3cc(S(=O)(=O)N4CCCCC4)ccc3N2C(C)=O)cc1 (stereo unspecified) | 864
CCN1C(=O)c2ccccc2Oc2ccc(C(=O)NCc3ccc(N(C)C)cc3)cc21 | 670
COc1ccc(-c2ccc(CNCC3CCNCC3)o2)cc1Cl | 579
CCC(C(=O)NCC(=O)Nc1nc2ccccc2[nH]1)c1ccccc1 (stereo unspecified) | 654
CCOC(=O)c1c(NC(=O)CN2CCN(c3ccccn3)CC2)sc(C(N)=O)c1C | 599
COc1cc(OC)cc(-c2noc(CCn3nc(-c4cccc(Cl)c4)ccc3=O)n2)c1 | 1040
O=C(NCCN1CCCCC1)c1ccc2c(=O)n(-c3ccc(F)cc3)c(N3CCCC3)nc2c1 | 629
COc1ccc(OC)c(NS(=O)(=O)c2ccc(-c3nnc(C4CCC4)o3)o2)c1 | 893
Cc1nn(CC(=O)N2CCC3(CC2)OCCO3)c(=O)c2nc(-c3ccccc3)sc12 | 970
CC(C)NC(=O)c1cccnc1N1CCSCC1 | 662
COc1ccc(CCS(=O)(=O)NCC2CCN(Cc3ccccc3SC)CC2)cc1 | 598
C[C@H](Nc1ncnc2nc[nH]c12)c1cc2cccc(Cl)c2c(=O)n1-c1ccccc1 | 697
CNC(=O)N1CCCN(C2=NS(=O)(=O)C(c3ccc(Cl)cc3)=C2C)CC1 | 703
COc1cccc(CNC(=O)C2(C)CCCN(C(=O)Nc3ccc(Cl)cc3)C2)c1 (stereo unspecified) | 942

Reference: the METLIN SMRT retention time set (Domingo-Almenara et al. 2019)
